# Patent US20140309265A1, “MACROCYCLIC COMPOUNDS FOR INHIBITION OF INHIBITORS OF APOPTOSIS” (Ensemble Therapeutics, priority 2011, published 2014)
# Where two headings read alike, the source gives them in different places.
# Columns and labels:
# [1] = molecular target: N-His-Tb-BIR3(241-356, XIAP) (Homo sapiens, UniProt P98170); assay: XIAP-BIR3 SMAC Peptide Fluorescence Polarization Assay (FPA); format: binding
# [2] = molecular target: T1, XIAP His-BIR2 (124-240/C202A/C213G) (Homo sapiens, UniProt P98170, C202A/C213G); assay: XIAP-BIR2/SMAC Peptide AlphaScreen Assay; format: binding
# T1 construct: additions of His-BIR2 (124-240/C202A/C213G), Biotinylated SMAC peptide
# T1 sequence (P98170 124-240 C202A/C213G): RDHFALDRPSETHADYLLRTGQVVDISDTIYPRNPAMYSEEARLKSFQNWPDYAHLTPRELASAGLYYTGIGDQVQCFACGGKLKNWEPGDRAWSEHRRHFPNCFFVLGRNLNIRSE
# Description: A. XIAP-BIR2/SMAC Peptide AlphaScreen Assay Assays were performed in white, flat-bottom, 384-well ProxiPlates (Perkin Elmer). […] The reaction was incubated at room temperature for 60 minutes. After 60 minutes, 2.5 μL of Alphascreen detection reagent (Perkin Elmer) was added to the reaction mixture and incubated at room temperature in the dark for 120 minutes. The Alphascreen signal generated by the reaction was detected on the Envision Plate Reader. […] Compounds were dissolved at 10 mM in dimethylsulfoxide (DMSO) and evaluated at eleven concentrations. IC50 values were derived by non-linear regression analysis.
# [3] = XIAP BIR2, AlphaScreen, Table 2, read-out: BIR2 IC50
# [4] = XIAP BIR2, Alphascreen, Table 4, read-out: BIR2 Alpha Screen IC50
# N-His-Tb-BIR3(241-356, XIAP), sequence (P98170 241-356): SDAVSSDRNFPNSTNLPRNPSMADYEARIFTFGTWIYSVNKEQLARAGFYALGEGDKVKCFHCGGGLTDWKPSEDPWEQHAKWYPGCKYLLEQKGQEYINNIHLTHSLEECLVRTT
SMILES,IC50 [1],"IC50 [2, 3]","IC50 ([1]; XIAP BIR3, FPA, Table 2, read-out: BIR3 IC50)","IC50 [2, 4]"
CN[C@@H](C)C(=O)N[C@H](C(=O)N1C[C@@H]2C[C@H]1C(=O)N[C@@H](Cc1ccc(-c3ccccc3)cc1)C(=O)N[C@H](C(=O)O)Cc1ccc(cc1)COc1cn(nn1)[C@H]1C[C@@H](C(=O)N[C@@H](Cc3ccc(-c4ccccc4)cc3)C(=O)N[C@H](C(=O)O)Cc3ccc(cc3)OCc3cn2nn3)N(C(=O)[C@@H](NC(=O)[C@H](C)NC)C(C)C)C1)C(C)C [Compound 114],< 50 nM,< 2000 nM,–,–
CN[C@@H](C)C(=O)N[C@H](C(=O)N1C[C@@H]2C[C@H]1C(=O)N[C@@H](Cc1ccc(OCc3ccccc3)cc1)C(=O)N[C@H](C(=O)O)Cc1ccc(cc1)COc1cn(nn1)[C@H]1C[C@@H](C(=O)N[C@@H](Cc3ccc(OCc4ccccc4)cc3)C(=O)N[C@H](C(=O)O)Cc3ccc(cc3)OCc3cn2nn3)N(C(=O)[C@@H](NC(=O)[C@H](C)NC)C(C)C)C1)C(C)C [Compound 115],< 50 nM,2000 to 12000 nM,–,–
CC[C@H](NC(=O)[C@H](C)NC)C(=O)N1C[C@@H]2C[C@H]1C(=O)N[C@@H](Cc1ccccc1)C(=O)N[C@H](C(=O)O)Cc1ccc(cc1)OCc1cn(nn1)[C@H]1C[C@@H](C(=O)N[C@@H](Cc3ccccc3)C(=O)N[C@H](C(=O)O)Cc3ccc(cc3)OCc3cn2nn3)N(C(=O)[C@H](CC)NC(=O)[C@H](C)NC)C1 [Compound 117],< 50 nM,< 2000 nM,–,–
CN[C@@H](C)C(=O)N[C@@H](C)C(=O)N1C[C@@H]2C[C@H]1C(=O)N[C@@H](Cc1ccccc1)C(=O)N[C@H](C(=O)O)Cc1ccc(cc1)OCc1cn(nn1)[C@H]1C[C@@H](C(=O)N[C@@H](Cc3ccccc3)C(=O)N[C@H](C(=O)O)Cc3ccc(cc3)OCc3cn2nn3)N(C(=O)[C@H](C)NC(=O)[C@H](C)NC)C1 [Compound 118],50 to 100 nM,> 12000 nM,–,–
CN[C@@H](C)C(=O)N[C@@H](CC(C)C)C(=O)N1C[C@@H]2C[C@H]1C(=O)N[C@@H](Cc1ccccc1)C(=O)N[C@H](C(=O)O)Cc1ccc(cc1)OCc1cn(nn1)[C@H]1C[C@@H](C(=O)N[C@@H](Cc3ccccc3)C(=O)N[C@H](C(=O)O)Cc3ccc(cc3)OCc3cn2nn3)N(C(=O)[C@H](CC(C)C)NC(=O)[C@H](C)NC)C1 [Compound 119],< 50 nM,< 2000 nM,–,–
CN[C@@H](C)C(=O)N[C@H](C(=O)N1C[C@@H]2C[C@H]1C(=O)N[C@@H](Cc1ccccc1)C(=O)N[C@H](C(=O)O)Cc1ccc(cc1)OCc1cn(nn1)[C@H]1C[C@@H](C(=O)N[C@@H](Cc3ccccc3)C(=O)N[C@H](C(=O)O)Cc3ccc(cc3)OCc3cn2nn3)N(C(=O)[C@@H](NC(=O)[C@H](C)NC)C2CCCCC2)C1)C1CCCCC1 [Compound 120],< 50 nM,< 2000 nM,–,–
CN[C@@H](C)C(=O)NCC1(C(=O)N2C[C@@H]3C[C@H]2C(=O)N[C@@H](Cc2ccccc2)C(=O)N[C@H](C(=O)O)Cc2ccc(cc2)OCc2cn(nn2)[C@H]2C[C@@H](C(=O)N[C@@H](Cc4ccccc4)C(=O)N[C@H](C(=O)O)Cc4ccc(cc4)OCc4cn3nn4)N(C(=O)C3(CNC(=O)[C@H](C)NC)CC3)C2)CC1 [Compound 121],–,> 12000 nM,> 100 nM,–
CN[C@@H](C)C(=O)N[C@H](C(=O)N1C[C@@H]2C[C@H]1C(=O)N[C@@H](CC1CCCCC1)C(=O)N[C@H](C(=O)O)Cc1ccc(cc1)OCc1cn(nn1)[C@H]1C[C@@H](C(=O)N[C@@H](CC3CCCCC3)C(=O)N[C@H](C(=O)O)Cc3ccc(cc3)OCc3cn2nn3)N(C(=O)[C@@H](NC(=O)[C@H](C)NC)C(C)C)C1)C(C)C [Compound 122],> 100 nM,2000 to 12000 nM,–,–
CN[C@@H](C)C(=O)N[C@H](C(=O)N1C[C@@H]2C[C@H]1C(=O)N[C@@H](COCc1ccccc1)C(=O)N[C@H](C(=O)O)Cc1ccc(cc1)OCc1cn(nn1)[C@H]1C[C@@H](C(=O)N[C@@H](COCc3ccccc3)C(=O)N[C@H](C(=O)O)Cc3ccc(cc3)OCc3cn2nn3)N(C(=O)[C@@H](NC(=O)[C@H](C)NC)C(C)C)C1)C(C)C [Compound 123],> 100 nM,2000 to 12000 nM,–,–
CN[C@@H](C)C(=O)N[C@H](C(=O)N1C[C@@H]2C[C@H]1C(=O)N[C@@H](Cc1csc3ccccc13)C(=O)N[C@H](C(=O)O)Cc1ccc(cc1)OCc1cn(nn1)[C@H]1C[C@@H](C(=O)N[C@@H](Cc3csc4ccccc34)C(=O)N[C@H](C(=O)O)Cc3ccc(cc3)OCc3cn2nn3)N(C(=O)[C@@H](NC(=O)[C@H](C)NC)C(C)C)C1)C(C)C [Compound 124],< 50 nM,< 2000 nM,–,–
CN[C@@H](C)C(=O)N[C@H](C(=O)N1C[C@@H]2C[C@H]1C(=O)N[C@@H](Cc1c[nH]c3ccccc13)C(=O)N[C@H](C(=O)O)Cc1ccc(cc1)OCc1cn(nn1)[C@H]1C[C@@H](C(=O)N[C@@H](Cc3c[nH]c4ccccc34)C(=O)N[C@H](C(=O)O)Cc3ccc(cc3)OCc3cn2nn3)N(C(=O)[C@@H](NC(=O)[C@H](C)NC)C(C)C)C1)C(C)C [Compound 125],< 50 nM,< 2000 nM,–,–
C=CCOc1ccc(C[C@@H]2NC(=O)[C@@H]3C[C@@H](CN3C(=O)[C@@H](NC(=O)[C@H](C)NC)C(C)C)n3cc(nn3)COc3ccc(cc3)C[C@@H](C(=O)O)NC(=O)[C@H](Cc3ccc(OCC=C)cc3)NC(=O)[C@@H]3C[C@@H](CN3C(=O)[C@@H](NC(=O)[C@H](C)NC)C(C)C)n3cc(nn3)COc3ccc(cc3)C[C@@H](C(=O)O)NC2=O)cc1 [Compound 126],50 to 100 nM,2000 to 12000 nM,–,–
CN[C@@H](C)C(=O)N[C@H](C(=O)N1C[C@@H]2C[C@H]1C(=O)N[C@@H](Cc1cccc(C(F)(F)F)c1)C(=O)N[C@H](C(=O)O)Cc1ccc(cc1)OCc1cn(nn1)[C@H]1C[C@@H](C(=O)N[C@@H](Cc3cccc(C(F)(F)F)c3)C(=O)N[C@H](C(=O)O)Cc3ccc(cc3)OCc3cn2nn3)N(C(=O)[C@@H](NC(=O)[C@H](C)NC)C(C)(C)C)C1)C(C)(C)C [Compound 129],< 50 nM,< 2000 nM,–,–
CN[C@@H](C)C(=O)N[C@H](C(=O)N1C[C@@H]2C[C@H]1C(=O)N[C@@H](Cc1cccc(C(F)(F)F)c1)C(=O)N[C@H](C(=O)O)Cc1ccc(cc1)OCc1cn(nn1)[C@H]1C[C@@H](C(=O)N[C@@H](Cc3cccc(C(F)(F)F)c3)C(=O)N[C@H](C(=O)O)Cc3ccc(cc3)OCc3cn2nn3)N(C(=O)[C@@H](NC(=O)[C@H](C)NC)C2CCCCC2)C1)C1CCCCC1 [Compound 130],< 50 nM,2000 to 12000 nM,–,–
CN[C@@H](C)C(=O)N[C@H](C(=O)N1C[C@@H]2C[C@H]1C(=O)N[C@@H](Cc1ccc(OC)c(OC)c1)C(=O)N[C@H](C(=O)O)Cc1ccc(cc1)OCc1cn(nn1)[C@H]1C[C@@H](C(=O)N[C@@H](Cc3ccc(OC)c(OC)c3)C(=O)N[C@H](C(=O)O)Cc3ccc(cc3)OCc3cn2nn3)N(C(=O)[C@@H](NC(=O)[C@H](C)NC)C(C)(C)C)C1)C(C)(C)C [Compound 131],> 100 nM,2000 to 12000 nM,–,–
CN[C@@H](C)C(=O)N[C@H](C(=O)N1C[C@@H]2C[C@H]1C(=O)N[C@@H](Cc1ccc(OC)c(OC)c1)C(=O)N[C@H](C(=O)O)Cc1ccc(cc1)OCc1cn(nn1)[C@H]1C[C@@H](C(=O)N[C@@H](Cc3ccc(OC)c(OC)c3)C(=O)N[C@H](C(=O)O)Cc3ccc(cc3)OCc3cn2nn3)N(C(=O)[C@@H](NC(=O)[C@H](C)NC)C2CCCCC2)C1)C1CCCCC1 [Compound 132],> 100 nM,> 12000 nM,–,–
CN[C@@H](C)C(=O)N[C@H](C(=O)N1C[C@@H]2C[C@H]1C(=O)N[C@@H](Cc1ccccc1)C(=O)N(C)[C@H](C(=O)O)Cc1ccc(cc1)OCc1cn(nn1)[C@H]1C[C@@H](C(=O)N[C@@H](Cc3ccccc3)C(=O)N(C)[C@H](C(=O)O)Cc3ccc(cc3)OCc3cn2nn3)N(C(=O)[C@@H](NC(=O)[C@H](C)NC)C(C)C)C1)C(C)C [Compound 133],< 50 nM,< 2000 nM,–,–
CN[C@@H](C)C(=O)N[C@H](C(=O)N1C[C@@H]2C[C@H]1C(=O)N[C@@H](Cc1ccc3ccccc3c1)C(=O)N(C)[C@H](C(=O)O)Cc1ccc(cc1)OCc1cn(nn1)[C@H]1C[C@@H](C(=O)N[C@@H](Cc3ccc4ccccc4c3)C(=O)N(C)[C@H](C(=O)O)Cc3ccc(cc3)OCc3cn2nn3)N(C(=O)[C@@H](NC(=O)[C@H](C)NC)C(C)C)C1)C(C)C [Compound 134],50 to 100 nM,< 2000 nM,–,–
CN[C@@H](C)C(=O)N[C@H](C(=O)N1CC2C[C@H]1C(=O)N[C@@H](Cc1ccc3ccccc3c1)C(=O)N[C@H](C(=O)O)Cc1cn(nn1)[C@H]1C[C@@H](C(=O)N[C@@H](Cc3ccc4ccccc4c3)C(=O)N[C@H](C(=O)O)Cc3cn2nn3)N(C(=O)[C@@H](NC(=O)[C@H](C)NC)C(C)C)C1)C(C)C [Compound 140],< 50 nM,< 2000 nM,–,–
CN[C@@H](C)C(=O)N[C@H](C(=O)N1C[C@@H]2C[C@H]1C(=O)N[C@@H](Cc1ccccc1)C(=O)N[C@H](C(=O)O)Cc1ccc(cc1)OCc1cn(nn1)[C@H]1C[C@@H](C(=O)N[C@@H](Cc3ccc4ccccc4c3)C(=O)N[C@H](C(=O)O)Cc3ccc(cc3)OCc3cn2nn3)N(C(=O)[C@@H](NC(=O)[C@H](C)NC)C(C)(C)C)C1)C(C)(C)C [Compound 149],< 50 nM,–,–,< 2000 nM
CN[C@@H](C)C(=O)N[C@H](C(=O)N1C[C@@H]2C[C@H]1C(=O)N[C@@H](Cc1ccccc1)C(=O)N[C@H](C(=O)O)Cc1ccc(cc1)OCc1cn(nn1)[C@H]1C[C@@H](C(=O)N[C@@H](Cc3ccc4ccccc4c3)C(=O)N[C@H](C(=O)OC)Cc3ccc(cc3)OCc3cn2nn3)N(C(=O)[C@@H](NC(=O)[C@H](C)NC)C(C)(C)C)C1)C(C)(C)C [Compound 150],50 to 100 nM,–,–,< 2000 nM
